Columns and labels:
[1] = target: Recombinant human CD33 protein (Homo sapiens (Human), UniProt P20138); experiment: CD33 competitive binding assay for HTS drug screen (fluorescent multivalent sialic acid probe)
Summary of the method: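 Recombinant human CD33, coated overnight at 4° C from 10 μg/ml in pH 5.5 acetate, was preincubated briefly with compound. It was then exposed to a multivalent neutravidin/FITC/sialic acid analog A-375 probe (final 5 μM neutravidin, 15 μM A-375, 5 μM FITC) for 30 min at room temperature. After washing, bound FITC fluorescence was read.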

[2] = target: Recombinant Human Siglec-3/CD33 protein (His-CD33) (Homo sapiens (Human), UniProt P20138); experiment: Differential scanning fluorimetry (DSF) thermal shift assay; format: binding; details: difference in thermal melt of CD33 protein (0.5 μM) with 50 μM compound
Sequence of Recombinant Human Siglec-3/CD33 protein (His-CD33) (P20138 18-259): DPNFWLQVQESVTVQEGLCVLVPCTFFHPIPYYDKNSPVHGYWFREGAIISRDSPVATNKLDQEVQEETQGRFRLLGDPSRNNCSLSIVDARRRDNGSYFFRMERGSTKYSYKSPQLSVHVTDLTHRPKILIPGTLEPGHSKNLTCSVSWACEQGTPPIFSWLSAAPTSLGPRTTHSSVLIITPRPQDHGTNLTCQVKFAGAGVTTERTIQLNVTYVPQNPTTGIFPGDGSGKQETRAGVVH

Sequence of Recombinant human CD33 protein (P20138 18-259): as above

SMILES	EC50 [1]	DSF (dTmD) [2]
CC(=O)N[C@H]1[C@H]([C@H](O)[C@H](O)CNC(=O)c2cc(C)c(O)c(C)c2)O[C@@](C/C=C/c2ccccc2CNC(=O)OC(C)(C)C)(C(=O)O)C[C@@H]1O [A-288]	2.68 µM	5.3 °C
CC(=O)N[C@H]1[C@H]([C@H](O)[C@H](O)CNC(=O)c2cc(C)c(O)c(C)c2)O[C@@](C/C=C/c2cc(CNC(=O)C3CCCOC3)ccc2C)(C(=O)O)C[C@@H]1O (some centres unmarked) [A-289]	2.68 µM	5.3 °C
CC(=O)N[C@H]1[C@H]([C@H](O)[C@H](O)CNC(=O)c2cc(C)c(O)c(C)c2)O[C@@](C/C=C/c2cc(CNC(=O)C3CCCOC3)ccc2C)(C(=O)O)C[C@@H]1O (some centres unmarked) [A-290]	20.4 µM	2.0 °C
CC(=O)N[C@H]1[C@H]([C@H](O)[C@H](O)CNC(=O)c2cc(C)c(O)c(C)c2)O[C@@](C/C=C/c2cccc(-c3cc(N)on3)c2)(C(=O)O)C[C@@H]1O [A-291]	4.3 µM	2.9 °C
CC(=O)N[C@H]1[C@H]([C@H](O)[C@H](O)CNC(=O)c2cc(C)c(O)c(C)c2)O[C@@](C/C=C/c2cccc(CN(C)C(=O)C3CCCOC3)c2)(C(=O)O)C[C@@H]1O (some centres unmarked) [A-292]	3.02 µM	4.0 °C
CC(=O)N[C@H]1[C@H]([C@H](O)[C@H](O)CNC(=O)c2cc(C)c(O)c(C)c2)O[C@@](C/C=C/c2cccc(CNC(=O)C3CCCOC3)c2)(C(=O)O)C[C@@H]1O (some centres unmarked) [A-293]	7.94 µM	4.2 °C
CC(=O)N[C@H]1[C@H]([C@H](O)[C@H](O)CNC(=O)c2cc(C)c(O)c(C)c2)O[C@@](C/C=C/c2cnc(CNC(=O)C3CCCOC3)s2)(C(=O)O)C[C@@H]1O (some centres unmarked) [A-294]	4.61 µM	4.2 °C
CC(=O)N[C@H]1[C@H]([C@H](O)[C@H](O)CNC(=O)c2cc(C)c(O)c(C)c2)O[C@@](C/C=C/c2cccc(C3CCCN3C(=O)OC(C)(C)C)c2)(C(=O)O)C[C@@H]1O (some centres unmarked) [A-295]	6.64 µM	4.0 °C
Cc1cc(C(=O)NC[C@@H](O)[C@@H](O)[C@@H]2O[C@@](CC3OC(C)(C)O[C@H]3c3cccc(NC(=O)OC(C)(C)C)c3)(C(=O)O)C[C@H](O)[C@H]2NC(=O)Cn2cc(C3CCCCC3)nn2)cc(C)c1O (some centres unmarked) [A-299]	0.512 µM	8.0 °C
Cc1cc(C(=O)NC[C@@H](O)[C@@H](O)[C@@H]2O[C@@](CC(O)[C@@H](O)c3cccc(NC(=O)OC(C)(C)C)c3)(C(=O)O)C[C@H](O)[C@H]2NC(=O)Cn2cc(C3CCCCC3)nn2)cc(C)c1O (some centres unmarked) [A-300]	44.6 µM	1.6 °C
Cc1cc(C(=O)NC[C@@H](O)[C@@H](O)[C@@H]2O[C@@](CC3OC(C)(C)O[C@H]3c3cccc(CNC(=O)OC(C)(C)C)c3)(C(=O)O)C[C@H](O)[C@H]2NC(=O)Cn2cc(C3CCCCC3)nn2)cc(C)c1O (some centres unmarked) [A-301]	5.26 µM	3.5 °C
CC(=O)N[C@H]1[C@H]([C@H](O)[C@H](O)CNC(=O)c2cc(C)c(O)c(C)c2)O[C@@](CC(O)[C@@H](O)c2cccc(NC(=O)CC(C)(C)C)c2)(C(=O)O)C[C@@H]1O (some centres unmarked) [A-304]	4.7 µM	3.9 °C
CC(=O)N[C@H]1[C@H]([C@H](O)[C@H](O)CNC(=O)c2cc(C)c(O)c(C)c2)O[C@@](CC2OC(C)(C)O[C@H]2c2cccc(NC(=O)C(=O)[C@H](C)c3cc(C4CC4)no3)c2)(C(=O)O)C[C@@H]1O (some centres unmarked) [A-305]	0.792 µM	5.4 °C
CC(=O)N[C@H]1[C@H]([C@H](O)[C@H](O)CNC(=O)c2cc(C)c(O)c(C)c2)O[C@@](CC2COC(C)(C)O2)(C(=O)O)C[C@@H]1O (some centres unmarked) [A-307]	103 µM	0.0 °C
CC(=O)N[C@H]1[C@H]([C@H](O)[C@H](O)CNC(=O)c2cc(C)c(O)c(C)c2)O[C@@](CC2OC(C)(C)O[C@H]2c2ccc(F)c(N3CCCC3=O)c2)(C(=O)O)C[C@@H]1O (some centres unmarked) [A-317]	0.92 µM	6.5 °C
CC(=O)N[C@H]1[C@H]([C@H](O)[C@H](O)CNC(=O)c2cc(C)c(O)c(C)c2)O[C@@](CC2OC(C)(C)O[C@H]2c2cc(N3CCCC3=O)ccc2C)(C(=O)O)C[C@@H]1O (some centres unmarked) [A-318]	0.13 µM	7.4 °C
CC(=O)N[C@H]1[C@H]([C@H](O)[C@H](O)CNC(=O)c2cc(C)c(O)c(C)c2)O[C@@](CC2OC(C)(C)O[C@H]2c2ccc(C)c(N3CCCC3=O)c2)(C(=O)O)C[C@@H]1O (some centres unmarked) [A-319]	4.22 µM	2.8 °C
CC(=O)N[C@H]1[C@H]([C@H](O)[C@H](O)CNC(=O)c2cc(C)c(O)c(C)c2)O[C@@](CC2OC(C)(C)O[C@@H]2c2ccc(C)c(N3CCCC3=O)c2)(C(=O)O)C[C@@H]1O (some centres unmarked) [A-320]	0.96 µM	4.8 °C
Cc1cc(C(=O)NC[C@@H](O)[C@@H](O)[C@@H]2O[C@@](OCCOCCNC(=O)OCc3ccccc3)(C(=O)O)C[C@H](O)[C@H]2NC(=O)Cn2cc(C3CCCCC3)nn2)cc(C)c1O [A-323]	10.9 µM	4.4 °C
Cc1cc(C(=O)NC[C@@H](O)[C@@H](O)[C@@H]2O[C@@](OC3CCCCC3NC(=O)CNC(=O)OCc3ccccc3)(C(=O)O)C[C@H](O)[C@H]2NC(=O)Cn2cc(C3CCCCC3)nn2)cc(C)c1O (some centres unmarked) [A-324]	3.67 µM	3.2 °C
Cc1cc(C(=O)NC[C@@H](O)[C@@H](O)[C@@H]2O[C@@](OC3CCCCC3NC(=O)CN(C)C(=O)OCc3ccccc3)(C(=O)O)C[C@H](O)[C@H]2NC(=O)Cn2cc(C3CCCCC3)nn2)cc(C)c1O (some centres unmarked) [A-325]	13.2 µM	3.3 °C
Cc1cc(C(=O)NC[C@@H](O)[C@@H](O)[C@@H]2O[C@@](OC3CCCCC3NC(=O)CN(C)C(=O)OCc3cccc(C(=O)NC4CC4)c3)(C(=O)O)C[C@H](O)[C@H]2NC(=O)Cn2cc(C3CCCCC3)nn2)cc(C)c1O (some centres unmarked) [A-326]	13.6 µM	4.0 °C
CNC(=O)c1cccc(COC(=O)NCC(=O)NC2CCCCC2O[C@]2(C(=O)O)C[C@H](O)[C@@H](NC(=O)Cn3cc(C4CCCCC4)nn3)[C@H]([C@H](O)[C@H](O)CNC(=O)c3cc(C)c(O)c(C)c3)O2)c1 (some centres unmarked) [A-327]	6.61 µM	3.2 °C
Cc1cc(C(=O)NC[C@@H](O)[C@@H](O)[C@@H]2O[C@@](OC3CCCCC3NC(=O)CNC(=O)CC3CCOCC3)(C(=O)O)C[C@H](O)[C@H]2NC(=O)Cn2cc(C3CCCCC3)nn2)cc(C)c1O (some centres unmarked) [A-328]	12.3 µM	1.4 °C

Now from value to molecule:

EC50 [1]	DSF (dTmD) [2]	SMILES
0.477 µM	6.4 °C	CC(=O)N[C@H]1[C@H]([C@H](O)[C@H](O)CNC(=O)c2cc(C)c(O)c(C)c2)O[C@@](CC2OC(C)(C)O[C@H]2c2cccc(NC(=O)OC(C)(C)C)c2)(C(=O)O)C[C@@H]1O (some centres unmarked) [A-296]
1.5 µM	4.9 °C	CC(=O)N[C@H]1[C@H]([C@H](O)[C@H](O)CNC(=O)c2cc(C)c(O)c(C)c2)O[C@@](CC2OC(C)(C)O[C@H]2c2cccc(NC(=O)c3ccc4cc[nH]c4c3)c2)(C(=O)O)C[C@@H]1O (some centres unmarked) [A-302]
1.5 µM	4.9 °C	CC(=O)N[C@H]1[C@H]([C@H](O)[C@H](O)CNC(=O)c2cc(C)c(O)c(C)c2)O[C@@](CC2OC(C)(C)O[C@H]2c2cccc(NC(=O)CC(C)(C)C)c2)(C(=O)O)C[C@@H]1O (some centres unmarked) [A-303]
0.54 µM	5.2 °C	CC(=O)N[C@H]1[C@H]([C@H](O)[C@H](O)CNC(=O)c2cc(C)c(O)c(C)c2)O[C@@](CC2OC(C)(C)O[C@H]2c2cccc(N3CCCC3=O)c2)(C(=O)O)C[C@@H]1O (some centres unmarked) [A-309]
3.24 µM	3.5 °C	CC(=O)N[C@H]1[C@H]([C@H](O)[C@H](O)CNC(=O)c2cc(C)c(O)c(C)c2)O[C@@](CC2OC(C)(C)O[C@H]2c2ccccc2CNC(=O)OC(C)(C)C)(C(=O)O)C[C@@H]1O (some centres unmarked) [A-310]
6.36 µM	0.5 °C	CC(=O)N[C@H]1[C@H]([C@H](O)[C@H](O)CNC(=O)c2cc(C)c(O)c(C)c2)O[C@@](CC2OC(C)(C)O[C@H]2c2cccc(C(=O)NCc3ccccc3)c2)(C(=O)O)C[C@@H]1O (some centres unmarked) [A-311]
0.159 µM	4.5 °C	CC(=O)N[C@H]1[C@H]([C@H](O)[C@H](O)CNC(=O)c2cc(C)c(O)c(C)c2)O[C@@](CC2OC(C)(C)O[C@@H]2c2cccc(C(=O)NCc3ccccc3)c2)(C(=O)O)C[C@@H]1O (some centres unmarked) [A-312]
11.9 µM	0.0 °C	CC(=O)N[C@H]1[C@H]([C@H](O)[C@H](O)CNC(=O)c2cc(C)c(O)c(C)c2)O[C@@](CC2OC(C)(C)O[C@H]2c2cccc(CN3CCOCC3)c2)(C(=O)O)C[C@@H]1O (some centres unmarked) [A-313]
7.85 µM	0.1 °C	CC(=O)N[C@H]1[C@H]([C@H](O)[C@H](O)CNC(=O)c2cc(C)c(O)c(C)c2)O[C@@](CC2OC(C)(C)O[C@H]2c2cccc3c2CN(C(=O)OC(C)(C)C)C3)(C(=O)O)C[C@@H]1O (some centres unmarked) [A-314]
1.14 µM	4.2 °C	CC(=O)N[C@H]1[C@H]([C@H](O)[C@H](O)CNC(=O)c2cc(C)c(O)c(C)c2)O[C@@](CC2OC(C)(C)O[C@H]2c2cccc(CC(=O)OC(C)(C)C)c2)(C(=O)O)C[C@@H]1O (some centres unmarked) [A-315]
4.86 µM	3.8 °C	CC(=O)N[C@H]1[C@H]([C@H](O)[C@H](O)CNC(=O)c2cc(C)c(O)c(C)c2)O[C@@](CC2OC(C)(C)O[C@H]2c2cccc(N3CCCCC3=O)c2)(C(=O)O)C[C@@H]1O (some centres unmarked) [A-316]
0.22 µM	7.2 °C	CC(=O)N[C@H]1[C@H]([C@H](O)[C@H](O)CNC(=O)c2cc(Cl)c(O)c(Cl)c2)O[C@@](CC2OC(C)(C)O[C@H]2c2cccc(C(=O)NCc3ccccc3)c2)(C(=O)O)C[C@@H]1O (some centres unmarked) [A-321]
7.79 µM	3.0 °C	CC(=O)N[C@H]1[C@H]([C@H](O)[C@H](O)CNC(=O)c2cc(Cl)c(O)c(Cl)c2)O[C@@](CC2OC(C)(C)O[C@@H]2c2cccc(C(=O)NCc3ccccc3)c2)(C(=O)O)C[C@@H]1O (some centres unmarked) [A-322]

From patent publication US20250313574A1, “SIALIC ACID DERIVATIVES AND METHODS OF USING SAME” (EISAI R&D MANAGEMENT CO., LTD., priority 2022, published 2025)
